The results in this text go back to PubChem BioAssay AID2305 (GlaxoSmithKline (GSK), 2010).

Structures are written as SMILES. pIC50: −log10 of the molar value. Several values for one entry are separate records, joined by “and”; a condition that tells them apart may be missing. Identical values can stand only once.

This assay concerns P. falciparum 3D7 growth, pLDH absorbance. Briefly: blood-stage malaria parasite growth potency – strain 3D7, dose response (AID 2305).
The pIC50 is the IC50 on a negative log10 scale, so that one unit is a factor of ten. Consider `COc1ccc([N+](=O)[O-])cc1N(Cc1ccccc1-c1ccccc1)S(=O)(=O)c1ccc(C(F)(F)F)cc1[N+](=O)[O-]`, for which the pIC50 is 5.98. For the molecule `CC(C)(C)Oc1ccc(NC(=O)c2ccccc2O)cc1`, the pIC50 was 6.00. To `CC1N=C(N)N=C(N)N1OCc1ccccc1` (stereo unspecified) belongs 7.52; to `Clc1cccc(C23N=C(Nc4nc5ccccc5[nH]4)NC2(c2ccccc2)NC(Nc2nc4ccccc4[nH]2)=N3)c1` (stereo unspecified), 6.28. The result for `Oc1c(C(Nc2nc3ccccc3s2)c2ccc(OC(F)F)cc2)ccc2cccnc12` (stereo unspecified) reads 6.24; that for `Cc1cnn(-c2cccc(C(=O)NC3CCC(CCN4CCc5ccc(C#N)cc5CC4)CC3)c2)c1` (stereo unspecified), 6.03. The result for `CCN(CCCN1CCCCC1)c1cc(C)nc(Nc2cc(Br)ccc2C)n1` reads 6.39; that for `NC(=O)COc1c(C2CCN(CCN3CCC(CNC(=O)c4ccc(-c5ccc(C(F)(F)F)cc5)cc4)CC3)CC2)ccc2c1CCCC2`, 6.01. Regarding `CN1CCCN(c2ccnc3cc4c(cc23)N(C(=O)c2ccc(Cl)cc2)CC4)CC1`, the pIC50 is 6.10. To `CN1CCCN(Cc2cccc(-c3ccc(NC(=O)c4cccc(Cl)c4)cc3)c2)CC1` belongs 6.03; to `CN1CCC(NCc2cccc(-c3cccc(S(=O)(=O)NCc4ccccc4)c3)c2)CC1`, 6.12.

For the molecule `Cc1cc(C)cc(N2C(N)=NC(N)=NC2(C)C)c1`, the pIC50 is 7.40. Take `Cc1nnc2c(NC(=O)NC(C)C)cc3cc(-c4ccc(CN5CCCCC5)cc4)ccc3n12`: the pIC50 was 5.93. To `COc1cccc(Nc2nc(C)cc(NC3CCCC3)n2)c1` belongs 5.95. To `CN1CCN(CCCSc2ccc3c(c2)ncn3-c2cc(OCc3ccccc3C(F)(F)F)c(C(N)=O)s2)CC1` belongs 6.36. The molecule `c1ccc(-c2ccc(-c3csc(Nc4ccncc4)n3)cc2)cc1` gave a pIC50 of 6.00. `CCn1cnc2c(N3CCCS3(=O)=O)cc(C(=O)N[C@@H](Cc3ccccc3)[C@H](O)CNC(C)(C)c3cccc(C(F)(F)F)c3)cc21` gave a pIC50 of 6.64. For the molecule `CN(C)CCC(O)C=C(c1ccc(Cl)cc1)c1ccc(Cl)cc1` (stereo unspecified), the pIC50 is 6.02. The result for `Fc1ccc2nc(-c3ccc(-c4ccc(CNCC5CCCO5)cc4)s3)[nH]c2c1` (stereo unspecified) reads 6.22. `CN(C)Cc1ccc(-c2cc3c(-c4ccc(CN(C)C)cc4)ccnc3[nH]2)cc1` gave a pIC50 of 6.05.

`Cc1ccc(NC(=O)NC2CCN(CCC(NC(=O)Cc3ccccc3)c3ccc(Cl)c(Cl)c3)CC2)cc1` (stereo unspecified) showed a pIC50 of 6.21. To `CCC1(C)CC(CCNCc2ccccc2O)(c2ccc(C)cc2)CCO1` (stereo unspecified) belongs 7.40; to `Cc1c(C(=O)N[C@@H](C)c2ccccc2)c2cc(O)c(Br)cc2n1C1CCCCC1`, 6.08; to `COc1cc2c(cc1OC)CC(NCCCCCCNCCc1ccc(Cl)cc1)CC2` (stereo unspecified), 6.13.

Molecule `Nc1ncc(-c2ccc(Cl)c(Cl)c2)c(N)n1` gave a pIC50 of 6.14. The result for `COc1ccc(CCN(C)CCOc2ccc(NC(=O)c3cc(SC)cc4c(=O)c5ccccc5[nH]c34)cc2)cc1OC` reads 5.85. As to `CC1=CC(=O)[C@@H](O)[C@]2(C)[C@H]3[C@@]4(O)OC[C@@]35[C@@H](C[C@@H]12)OC(=O)C[C@H]5[C@@H](C)[C@H]4O`, the pIC50 is 6.46. To `Cc1nnsc1C(=O)Nc1cccc(-c2ccc(-c3nc4ccc(C(F)(F)F)cc4[nH]3)cc2)c1` belongs 6.51. To `CC(=O)Nc1ccc2[nH]cc(C3CCN(CC4CCC(NC(=O)/C=C/c5ccc(Cl)c(Cl)c5)CC4)CC3)c2c1` (stereo unspecified) belongs 6.36 and 6.14. To `CCCCCCCCOc1ccc(N2C(N)=NC(N)=NC2(C)C)cc1` belongs 6.30; to `O=C(CC1CCCC1)N(Cc1ccc(-c2ccc(CNC3Cc4ccccc4C3)cc2)cc1)CC1CCCCN1` (stereo unspecified), 5.97.

In turn, `COc1ccc2nccc([C@@H](O)CN3CCC(NCc4ccc5c(c4)NC(=O)CO5)CC3)c2c1` had a pIC50 of 5.78. The result for `CN1CCN(CC(=O)Nc2ccc(-c3ccc(-c4nc5ccccc5[nH]4)cc3)cc2)CC1` reads 6.15. To `COc1ccc(-c2ccc(NC(=O)c3cccc(Cl)c3)cc2)cc1CN1CCN(C)CC1` belongs 6.02. To `CC[C@H]1CN2CC[C@H]1C[C@H]2[C@H](O)c1cc(-c2ccc(C)cc2)nc2ccc(OC)cc12` belongs 6.96; to `c1ccc2c(c1)ncn2-c1ccnc(Nc2ccncc2)n1`, 6.19. The molecule `COc1ccc2cc(-c3nc(-c4c(Cl)cccc4Cl)[nH]c3-c3ccnc(NCCCN4CCN(C)CC4)c3)ccc2c1` showed a pIC50 of 6.15. Molecule `COc1ccc2ncc(C)c(CCN3CCC(NCc4ccc5c(n4)NC(=O)CS5)CC3)c2c1` had a pIC50 of 6.26. To `CC=CC1CCNC(C(O)c2ccnc3ccc(OC)cc23)C1` (stereo unspecified) belongs 5.96; to `Cc1cccc2[nH]c(-c3ccc(-c4cccc(CN5CCC(C(N)=O)CC5)c4)s3)nc12`, 5.90. The result for `CC[C@H](NC(=O)c1c(N)c(-c2sccc2Cl)nc2ccccc12)c1ccccc1` reads 6.04; that for `O=C(/C=C/c1ccc(Cl)c(Cl)c1)N1CCC(CN2CCC(c3nc4ccccc4n3CCCO)CC2)CC1`, 6.08.

Regarding `CC1CC1C(=O)NC1CCN(CC2(c3ccccc3)CCCCC2)CC1` (stereo unspecified), the pIC50 is 6.19. To `O=C(Nc1cc(F)cc(-c2cccnc2)c1)c1ccc2c(=O)n(Cc3ccccc3)cnc2c1` belongs 5.88; to `Cc1ccc2ncc(Cl)c(CCN3CCC(NCc4ccc5c(n4)NC(=O)CS5)CC3)c2n1`, 5.96; to `COc1ccc2ncc(C#N)c(CCN3CCC(NCc4cnc5c(c4)OCCO5)CC3)c2n1`, 6.22.

`CCn1c(-c2nonc2N)nc2c(-c3cccc(NC(=O)Nc4cccc(C#N)c4)c3)ncc(OCCCN)c21` had a negative logarithm of the IC50 (pIC50) of 6.17. With `O=C(/C=C/c1ccccc1Cl)NC1CCC(CN2CCC(c3c[nH]c4ccccc34)CC2)CC1` (stereo unspecified), the pIC50 is 6.22 and 6.07. `CCOC(=O)c1ccc(NC(=O)Nc2ccc(-c3cccc(-c4nc5ccc(F)cc5[nH]4)c3)cc2)cc1` showed a pIC50 of 6.92. In turn, `O=C(/C=C/c1ccc(Cl)c(Cl)c1)NCC1CCN(Cc2ccc(O)cc2)CC1` had a pIC50 of 6.16. Take `CCCc1nc2c(N3CCCN(C(=O)NC4CCCCC4)CC3)cccc2n1Cc1ccccn1`: the pIC50 is 5.94. In turn, `Cc1cc(N(C)C)nc(Nc2ccc(NC(=O)c3ccc(Br)o3)cc2)n1` gave a pIC50 of 5.98.

`O=C(c1ccc(-c2ccc(-c3nc4ccc(C(F)(F)F)cc4[nH]3)s2)cc1)N1CCCCC1CN1CCC(O)C1` (stereo unspecified) had a pIC50 of 6.25. The result for `CC(C)CNC(=O)c1cncc(-c2cccc(CNC3Cc4ccccc4C3)c2)c1` reads 6.10; that for `COc1ccc(-c2ccc(NC(=O)c3ccc(C#N)cc3)cc2)cc1CN1CCN(C)CC1`, 6.14; that for `CN(C)CCNc1ncnc2c1[nH]c1ccc(Cl)cc12`, 6.22.

Molecule `O=C(c1ccc(-c2cnc3[nH]cc(-c4ccc(C(=O)N5CCOCC5)cc4)c3c2)cc1)N1CCOCC1` gave a pIC50 of 6.00.

In the case of `CCCC(CNCc1cccc(OCC)c1)CNc1cc(=O)c2ccccc2[nH]1` (stereo unspecified), the pIC50 was 6.07.

In turn, `COc1ccccc1CCNc1nc(C)cc(N[C@@H](Cc2ccccc2)C(=O)NCCc2ccccc2)n1` showed a pIC50 of 5.95. The result for `COc1ccc(-c2cc3ncnc(N4CCN(CCN5CCCC5)CC4)c3s2)cc1` reads 6.08. To `CN(C)c1ccc(-c2ccc(C(=O)NC3CCN(Cc4cccc(C(F)(F)F)c4)CC3)s2)cc1` belongs 6.00.

The molecule `O=C1NC(C(=O)Nc2ccccc2)C(c2ccccc2)S1` (stereo unspecified) had a pIC50 of 6.77. The result for `CN1CCC[C@@H](Oc2cc3c(cc2Br)CCN3C(=O)Nc2ccc(-c3ccncc3)c(Cl)c2)C1` reads 6.21; that for `CNC(=O)c1cc(Nc2nnc(-c3ccc(C)c(S(=O)(=O)NC4CCCCC4)c3)c3ccccc23)ccc1OC`, 6.05; that for `CCCCCCCCc1c(C)[nH]c(C)c(Cl)c1=O`, 6.64. The result for `CC(C)(C(=O)NCCC1CCN(CCCCCNC(=O)/C=C/c2ccc(Cl)c(Cl)c2)CC1)c1ccc(Cl)cc1` reads 5.89; that for `COc1cc2c(cc1OC)CN(c1cc(N)c3cc(OC)c(OC)cc3n1)CC2`, 6.26. To `COc1ccc2nccc([C@@H](O)CN3CCC(NC(=O)c4cc5ccccc5[nH]4)CC3)c2c1` belongs 6.01. Consider `COc1ccc(NC(=O)c2cc(-c3ccc(NC(C)=O)cc3)cnc2N)cc1`, for which the pIC50 was 6.09.

`CCN(CC)c1ccc2nc(N)nc(N)c2c1Cl`: the pIC50 was 7.52. To `CN1CCN(c2cc(NC(=O)Nc3cccc(Cl)c3Cl)ccc2Cl)CC1` belongs 6.14; to `O=C(/C=C/c1ccc(I)cc1)NCCCCCN1CCC(c2c[nH]c3ccc(O)cc23)CC1`, 6.11; to `Cc1cccc2[nH]c(-c3cccc(-c4cccc(NC(=O)Nc5cccc(C#N)c5)c4)c3)nc12`, 7.00. On to `CCc1c(C(=O)NC2CCC(N3CCC(c4ccccc4OC)CC3)CC2)[nH]c2ccc(OC)cc12` (stereo unspecified), for which the pIC50 is 5.95. To `COC(=O)C1=CNC=C(C(=O)OC)C1c1ccc(Cl)c([N+](=O)[O-])c1` belongs 6.17; to `COc1ccc2nc(C)cc(Nc3ccc(Oc4ccc5ccccc5c4)c(Cl)c3)c2c1`, 6.16.

Consider `CC(=O)Nc1cccc(C(=O)Nc2ccc(-c3cccc(-c4nc5ccc(C(F)(F)F)cc5[nH]4)c3)cc2)c1`, for which the pIC50 was 6.82. To `COc1ccc(-c2cccc(NC(=O)c3cccc(F)c3)c2)cc1CN1CCCN(C)CC1` belongs 6.22; to `CC(C)[C@H](NC(=O)c1ccc(O)c(-c2ccc(Cl)c(Cl)c2)c1)C(=O)NC1CCCCCC1`, 6.66; to `Oc1ccc2[nH]c(-c3cccc(F)c3)nc2c1CN1CCC(N2CCCC2)CC1`, 6.74. To `Cc1ccc2c(c1)NC[C@@]21CCN(C[C@@H](O)C2CCN(c3ccnc(Cl)c3)CC2)C[C@@H]1C` belongs 6.03; to `O=S(=O)(NCCN1CCCC1)c1cccc(-c2ccc(CNCc3ccc(F)cc3)cc2)c1`, 6.64; to `Cc1cc(N[C@@H](CC(C)C)C(=O)NCc2cccc(F)c2)nc(Nc2ccccc2)n1`, 5.96. `c1cc(CNCC2CCCO2)cc(-c2ccc(-c3nc4ccccc4[nH]3)s2)c1` (stereo unspecified) gave a pIC50 of 5.93. To `CN(C)C(=S)N=Nc1c(O)[nH]c2ccc(OC(F)(F)F)cc12` belongs 5.99; to `Cc1cnc(CNCc2ccc(S(=O)(=O)Nc3ccc(Oc4cccc(Cl)c4)cc3)cc2)cn1`, 6.11.
